Results on five compounds are retold here after patent US7468274B2, “Single cell analysis of HIV replication capacity and drug resistance” (priority 2004, dated 2008).

Broadly, the Cmax is the highest concentration seen after dosing.

Structures are written as SMILES. “And” between values parts separate entries of the source, which are not always exact repeats. Equal entries are not always repeated. “Also recorded” adds a separate entry of the source. Where two headings read alike, the source gives them in different places.

Data set [1] relates to pseudotyped reporter viruses carrying the NL4-3 gag-pol sequence (wild type). Type of data set: cell-based, HIV-1.
The subject of data set [2] is Pt2019-1-1 patient-derived drug-resistant HIV-1 isolate. Type of data set: cell-based.
Data set [3] concerns Pt2019-1-2 patient-derived drug-resistant HIV-1 isolate. Type of data set: cell-based.
For data set [4] the following is noted: in vivo; cited from earlier work.

As to `Nc1ccn([C@@H]2CS[C@H](CO)O2)c(=O)n1` [3TC, lamivudine], the “Drug Resistance Index” value stood at 0.002 in data set [1]; 1 in data set [2]; 0.8 in data set [2] (Pt2019-1-1, concn 12.5 (head prints p.M; text 12.5 μM)); 0.001 in data set [3] (concn 12.5 (head prints p.M; text 12.5 μM)). Further, the “Replication Index (replication capacity index x drug resistance index)” value in data set [1] is on record as 0.002. Besides, the “Replication Index” value in data set [2] (Pt2019-1-1, concn 12.5 (head prints p.M)) amounted to 0.42; in data set [3] (concn 12.5 (head prints p.M)), 0.00053.

In the case of `Cc1cn([C@H]2C[C@H](N=[N+]=[N-])[C@@H](CO)O2)c(=O)[nH]c1=O` [AZT, zidovudine], in data set [1], the “% GFP-positive target cells” value was 7.61% and 6.70% and 7.59% and 6.71%; the “Drug resistance index (replication with drug / without drug)” value stood at 0.356; the “Mean % GFP-positive target cells” value came out at 7.15%.

Regarding `O=C1Nc2ccc(Cl)cc2[C@@](C#CC2CC2)(C(F)(F)F)O1` [EFV, efavirenz], in data set [1], the “Cmin/IC50 ratio (published Cmin to IC50 measured in this system)” value is > 1,000 fold.

In the case of `Cc1cn([C@H]2C=C[C@@H](CO)O2)c(=O)[nH]c1=O` [d4T, stavudine], in data set [1], the “% GFP-positive target cells” value was 6.83% and 7.04% and 5.74%; the “Cmax relative to IC50 measured in this system” value is “close to or below; also recorded: below”; the “Drug resistance index (replication with drug / without drug)” value was 0.325; the “Mean % GFP-positive target cells” value is 6.54%.

For `O=c1[nH]cnc2c1ncn2[C@H]1CC[C@@H](CO)O1` [ddI, didanosine], in data set [1], the “Cmax relative to IC50 measured in this system” value is recorded as “close to or below” and the “Cmax relative to IC90 measured in this system” value is recorded as “below”. Also, in data set [4], the peak concentration (Cmax) was 6.78 µM.
